Results on five compounds are retold here after patent US8609833B2, “Purine derivatives as adenosine A1 receptor agonists and methods of use thereof” (Inotek Pharmaceuticals Corporation, priority 2004, dated 2013).

The target of test [1] is human recombinant A2A adenosine receptor (Homo sapiens (Human), UniProt P29274). In words: Adenosine A2A receptor binding, displacement of [3H]NECA. The following applies: displacement of specific [3H]NECA binding, CHO cells; geometric mean. The protocol:
(§1) Membranes for radioligand binding experiments were prepared from fresh or frozen cells as described in Klotz et al., Naunyn-Schmiedeberg's Arch. […] The cell suspension was then homogenized in ice-cold hypotonic buffer (5 mM Tris/HCl, 2 mM EDTA, pH 7.4) and the homogenate was spun for 10 minutes (4° C.) at 1,000 g.
(§2) Nonspecific binding was determined in the presence of 100 μM R-PIA and 1 mM theophylline, respectively. For details see Klotz et al., Naunyn-Schmiedeberg's Arch.
In general terms: Displacement assays read how much labelled ligand stays bound in the presence of the test substance.

In another test the test system is adult male Wistar rats. Briefly: Effect on heart rate in anesthetized rats. The format is in vivo, rat. The source says: Adult male Wistar rats (each weighing from about 350 g to about 400 g) were anesthetized as in Example 19, then prepared for monitoring of blood pressure and heart rate.
In a further test the test system is BALB/C mice. Briefly: Allodynia in streptozotocin model of diabetic neuropathy. Format: in vivo, mouse. The following applies: 1 mg/kg; 15, 30, 60 min after administration. The protocol: BALB/C mice (6-8 weeks of age) were intraperitoneally administered streptozotocin (40 mg/kg, once per day for 5 consecutive days) to induce diabetes (blood glucose levels were greater than […]).

The test system of test [2] is male mice. Briefly: Acute pain model, tail flick assay. The settings on record: 3 mg/kg i.p. Format: in vivo, mouse. The procedure: The analgesic effects in mice was measured using an IITC model 33 tail-flick analgesia meter (IITC Inc., Woodland Hills, Calif.) at 0 minutes (baseline control), 5 minutes, 15 minutes, 30 minutes and 60 minutes (in some cases also 90 and 120 minutes) post-treatment. compound or vehicle treatment. Average recoding value of two readings was used for each time point. A baseline for every mouse between 2-4 seconds of latency and a 10-second cut-off time was set for the maximum possible effect of analgesia (% MPE). % MPE was calculated using the following formula: % MPE=[(post-drug value−baseline)/(cut-off time−baseline)]×100.

For test [3], the system named is male BALB/c mice. Briefly: Lipopolysaccharide-induced mortality, survival study. The format is in vivo, mouse. The settings on record: 0.03 mg/kg orally 30 min before LPS 55 mg/kg i.p.; followed over 72 h. The procedure: (§3) Male BALB/c mice (6-8 weeks of age) were used in studies investigating lipopolysaccharide-induced cytokine production and survival. […] Serum was diluted 1:5 prior to being assayed for cytokines using species-specific ELISA kits (R & D Systems) for the chemokine MIP-1α and the cytokine TNF-α levels, which were expressed as pg/mL. […] The survival of the mice was followed over 72 h and expressed as a percentage of surviving mice at each time point. […] N=12-14 per group.

Test [4] deals with isolated perfused rat hearts. Briefly: Ischemia-induced arrhythmias in isolated perfused rat hearts (LAD ligation). The protocol: Male Sprague-Dawley rats (having a body weight of 250 to 300 g) were heparinized using sodium heparin (1,000 U/kg i.p.), followed 10 minutes later by introduction of anesthesia via intraperitoneal administration of sodium pentobarbital (40 mg/kg). Once the animal was anesthetized, the thorax was opened, and the heart was rapidly removed and perfused through the ascending aorta using Krebs-Ringer buffer consisting of NaCl (118 mmol/liter), KCl (4.75 mmol/liter), KH2PO4 (1.18 mmol/liter), MgSO4 (1.18 mmol/liter), CaCl2 (2.5 mmol/liter), NaHCO3 (25 mmol/liter), and glucose (11 mmol/liter). A mixture of 95% O2 and 5% CO2 at 37° C. was bubbled through the perfusate. The heart was initially perfused at a constant pressure of 70 mm Hg. About 10 min after the constant pressure perfusion, perfusion was switched to constant flow perfusion achieved using a microtube pump. The perfusion pressure was maintained at the same level of constant pressure perfusion by adjusting flow rate. Once the flow rate was determined, it was maintained throughout the experiment. The hearts were stimulated by rectangular pulses at a rate of 5 Hz and 2-millisecond duration and twice the diastolic threshold, delivered from a stimulus isolation unit (ADInstruments Ltd, Australia). Rat hearts were perfused at constant pressure of 70 mmHg without pacing as described above. Bipolar epicardial electrocardiogram (ECG) was recorded by placing two electrodes on the surface of right appendage and apex. A stainless steel cannula was used as indifferent electrode. The ECG and heart rate were continuously monitored and data were recorded using a PowerLab data acquisition system (ADInstruments Ltd, Australia) in conjunction with a Macintosh computer, and analyzed using Chart.3 computer package. After a 20-minute equilibration period, regional ischemia was induced by ligation of the left anterior descending (LAD) coronary artery, and the ligature was released 30 minutes after occlusion. […] The incidences of ventricular tachycardia (VT) were almost same in control non-treated (12/12) and in treated hearts (20/22). […]

For test [5], the system named is male BALB/c mice. In words: Lipopolysaccharide-induced cytokine production (septic shock model). Format: in vivo, mouse. The settings on record: 0.03 mg/kg orally 30 min before LPS 1 mg/kg i.p.; measured 90 min after LPS. The protocol:
as §3

The subject of test [6] is isolated perfused rat hearts. In words: Function recovery after global ischemia/reperfusion in isolated perfused rat hearts. The settings on record: 1 nM, infused 10 min before 30 min no-flow ischemia, 40 min reperfusion. The protocol: Male Sprague-Dawley rats (having a body weight of 250 to 300 g) were heparinized using sodium heparin (1,000 U/kg i.p.), followed 10 minutes later by introduction of anesthesia via intraperitoneal administration of sodium pentobarbital (40 mg/kg). Once the animal was anesthetized, the thorax was opened, and the heart was rapidly removed and perfused through the ascending aorta using Krebs-Ringer buffer consisting of NaCl (118 mmol/liter), KCl (4.75 mmol/liter), KH2PO4 (1.18 mmol/liter), MgSO4 (1.18 mmol/liter), CaCl2 (2.5 mmol/liter), NaHCO3 (25 mmol/liter), and glucose (11 mmol/liter). A mixture of 95% O2 and 5% CO2 at 37° C. was bubbled through the perfusate. The heart was initially perfused at a constant pressure of 70 mm Hg. About 10 min after the constant pressure perfusion, perfusion was switched to constant flow perfusion achieved using a microtube pump. The perfusion pressure was maintained at the same level of constant pressure perfusion by adjusting flow rate. Once the flow rate was determined, it was maintained throughout the experiment. The hearts were stimulated by rectangular pulses at a rate of 5 Hz and 2-millisecond duration and twice the diastolic threshold, delivered from a stimulus isolation unit (ADInstruments Ltd, Australia). Rat hearts were initially perfused at a constant pressure of 70 mm Hg using the procedure described above in section 6.12.1. […]

The test system of a further test is male CD rats. Briefly: Sciatic nerve ligation allodynia, Von Frey Hair test. Format: in vivo, rat. The procedure: The rats were then anesthetized via intraperitoneal administration of sodium pentobarbital (50 mg/kg). A skin incision was made at the upper ⅓ and ⅔ left thigh area of each rat and the left sciatic nerve was exposed and freed from the surrounding connective tissue. An 8-0 nylon suture was then used to tightly ligate the left sciatic nerve of each rat so that the dorsal ⅓ to ½ of the nerve thickness was trapped in the ligature. The incision was closed using 4-0 sterile suture.

A further test deals with male Wistar rats. In words: Mechanically induced pain threshold in carrageenan rat model. Format: in vivo. The settings on record: intrathecal, 5.0 mg/kg (FIG. 8); 15-120 min. The procedure: Male Wistar rats (each weighing between 200-250 g, kept under pathogen-free conditions at 24-25° C. and provided with standard rat chow and water ad libitum) were anaesthetized via intraperitoneal administration of pentobarbital (50 mg/kg) and placed in a stereotaxic frame. The atlanto-occipital membrane was exposed and a PE-10 catheter (7.5 cm) was inserted through an incision into the subarachnoidal space. The external end of the catheter was then fixed to the skull, the wound was closed, and the rats were allowed to recover for 7 days post-surgery. Animals without neurological deficits were placed in a plexiglass observation chamber on a metal mesh surface and mechanical thresholds of the plantar surface of the paw were determined using a Dynamic Plantar Aesthesiometer (Ugo Basile, Italy) as follows: Following acclimation, the touch stimulator unit was placed under the animal's paw such that the filament was positioned under the target area of the paw. The filament was then lifted such that it contacted the pad of the animal's paw and continually exerted an increasing upward force on the paw until the animal withdrew the paw. The paw withdrawal threshold was measured 5 times in this manner in turns and the mean of the 5 values was calculated. […] Three hours after the carrageenan administration, the threshold values were measured again.

The target of test [7] is human recombinant A3 adenosine receptor (Homo sapiens (Human), UniProt P0DMS8). In words: Adenosine A3 receptor binding, displacement of [3H]NECA. The following applies: displacement of specific [3H]NECA binding, HEK cells; geometric mean. The procedure: as §1, §2
human recombinant A3 adenosine receptor, sequence (P0DMS8 whole entry): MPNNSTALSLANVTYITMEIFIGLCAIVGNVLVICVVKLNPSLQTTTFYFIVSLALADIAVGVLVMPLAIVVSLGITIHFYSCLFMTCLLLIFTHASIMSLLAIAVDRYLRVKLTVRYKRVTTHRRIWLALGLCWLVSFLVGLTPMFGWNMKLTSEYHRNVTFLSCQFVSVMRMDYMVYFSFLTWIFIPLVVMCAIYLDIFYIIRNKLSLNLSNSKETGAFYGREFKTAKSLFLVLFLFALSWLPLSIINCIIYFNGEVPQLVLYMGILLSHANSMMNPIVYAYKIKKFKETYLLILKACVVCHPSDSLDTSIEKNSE
In test [8] the test system is male mice. In words: Formalin pain model. The settings on record: 1.0 mg/kg i.p. Format: in vivo, mouse. The protocol: Male mice (each having a body weight of 20-30 g) were subcutaneously administered 20 μl of a 1% formalin solution in formaldehyde (prepared by diluting a commercial 4% [w/v] stock formalin solution) into the dorsal region of their left hind paw. […] Both groups of animals were monitored for a reaction for 30 minutes post-treatment to determine how much time each animal spends licking the treated paw. The licking time in control group (vehicle pretreated animals) was then compared to the licking time in the treatment group in order to calculate the analgesic effect. The 30 minute reaction period was divided into two phases: an early phase which lasts from 0-5 minutes post-treatment, and a late phase which lasts from 10-30 minutes post-treatment.

The target of test [9] is human recombinant A1 adenosine receptor (Homo sapiens (Human), UniProt P30542). Briefly: Adenosine A1 receptor binding, displacement of [3H]CCPA. The settings on record: for Ki: displacement of specific [3H]CCPA binding, CHO cells, geometric mean; for selectivity for the adenosine A1 receptor: versus human A2A and A3 receptors, Table 1. The protocol:
as §1
The affinities of selected Purine Derivatives for the adenosine A1 receptor were determined by measuring the displacement of specific [^3H]
as §2

As usually defined, the Ki is the dissociation constant of the complex between target and ligand, obtained from inhibition or displacement.

SMILES strings stand for the structures.

human recombinant A1 adenosine receptor, sequence (P30542 whole entry): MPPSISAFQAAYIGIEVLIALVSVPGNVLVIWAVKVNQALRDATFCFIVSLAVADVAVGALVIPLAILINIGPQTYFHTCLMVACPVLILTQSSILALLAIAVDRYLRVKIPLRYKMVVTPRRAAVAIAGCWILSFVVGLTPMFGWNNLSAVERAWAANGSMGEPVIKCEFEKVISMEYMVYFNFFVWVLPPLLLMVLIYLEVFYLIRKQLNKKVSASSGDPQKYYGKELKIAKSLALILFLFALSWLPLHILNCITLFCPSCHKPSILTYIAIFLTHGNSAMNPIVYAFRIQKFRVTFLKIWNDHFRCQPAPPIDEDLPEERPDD
human recombinant A2A adenosine receptor, sequence (P29274 whole entry): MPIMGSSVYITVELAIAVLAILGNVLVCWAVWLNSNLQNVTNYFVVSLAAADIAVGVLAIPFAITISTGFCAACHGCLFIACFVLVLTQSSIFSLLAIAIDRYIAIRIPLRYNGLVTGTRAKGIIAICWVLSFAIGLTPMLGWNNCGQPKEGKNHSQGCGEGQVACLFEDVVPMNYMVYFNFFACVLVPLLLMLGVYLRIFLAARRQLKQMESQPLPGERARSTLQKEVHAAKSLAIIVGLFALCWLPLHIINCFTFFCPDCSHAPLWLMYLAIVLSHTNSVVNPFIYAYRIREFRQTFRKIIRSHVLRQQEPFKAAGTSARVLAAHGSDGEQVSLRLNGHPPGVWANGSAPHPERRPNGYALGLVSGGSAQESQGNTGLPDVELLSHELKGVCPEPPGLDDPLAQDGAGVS

Take `O=[N+]([O-])OC[C@H]1O[C@@H](n2cnc3c(NC4CCCC4)nc(Cl)nc32)[C@H](O)[C@@H]1O` [Compound 16]: the Ki in test [1] worked out at 4190 nM.
Regarding `O=[N+]([O-])OC[C@H]1O[C@@H](n2cnc3c(NC4CCCC4)ncnc32)[C@H](O)[C@@H]1O` [Compound 17], the heart rate is reported as 370 beats per minute with adult male Wistar rats (10 ng/kg/minute i.v. for 20 minutes, lowered from 440 beats per minute) and 150 beats per minute with adult male Wistar rats (1000 ng/kg/minute i.v. for 20 minutes, reduced from 440 beats per minute). The “analgesic effect on allodynia” value in the test with BALB/C mice is “marked and lasting analgesic effect”. For the same compound, in the test with male mice [2], the “analgesic effect, tail flick (% MPE)” value is listed as “exerts a analgesic effect”. Further, the lipopolysaccharide-induced mortality entry in the test with male BALB/c mice [3] is listed as “reduces”. The “total duration of both VT and VF” value in test [4] (30 and 100 pM) is reported as “significantly shortened”. Moreover, the “incidence of ventricular fibrillation (VF)” value in test [4] (treated hearts (2/22), 10, 30 and 100 pM, non-treated 58% (7/12)) is listed as 9%. Also, the “incidence of ventricular tachycardia (VT)” value in test [4] (treated hearts, 10, 30 and 100 pM, non-treated 12/12) is on record as 20/22. In addition, in the test on male BALB/c mice [5], the “lipopolysaccharide-induced plasma MIP-1α production” value is given as “reduces”. The “lipopolysaccharide-induced plasma TNF-α production” value with male BALB/c mice [5] is “reduces”. The “+dp/dtmax (maximal rate of development of left ventricular pressure)” value in test [6] is “significantly improved”. Besides, the Ki was 4690 nM in test [1] and 704 nM in [7]. Further, the “analgesic effect on allodynia, alone” value in the test on male CD rats (0.1 mg/kg alone) is “exerts an analgesic effect”. In the test on male CD rats (0.1 mg/kg co-administered with buprenorphine 0.3 mg/kg), the “analgesic effect on allodynia, in combination with buprenorphine” value is “exerts an analgesic effect”. Moreover, the “paw withdrawal (pain) threshold” value with male Wistar rats is listed as “effective for raising the pain threshold”. Also, the “analgesic effect, paw licking time, late phase (10-30 min)” value in the test on male mice [8] was “exhibits an analgesic effect during the late phase”. Moreover, in the test with male mice [8] (early phase 0-5 min), the “response in first phase of formalin test” value is on record as “no response”.
For the compound `Nc1ncnc2c1ncn2[C@@H]1O[C@H](CO[N+](=O)[O-])[C@@H](O)[C@H]1O` [Compound 18], the inhibition constant Ki came to 951 nM in test [1], 216 nM in test [7] and 5.79 nM in test [9]. In [9], the “selectivity for the adenosine A1 receptor” value (shortened to “selectivity”) is “selective for the adenosine A1 receptor”.
For `Nc1nc(Cl)nc2c1ncn2[C@@H]1O[C@H](CO[N+](=O)[O-])[C@@H](O)[C@H]1O` [Compound 19], the inhibitory constant (Ki) in test [1] turned out to be 10000 nM; in test [7] it was 900 nM; in [9], 7 nM. In addition, the “selectivity” value in test [9] is “selective for the adenosine A1 receptor”.
Take `O=[N+]([O-])OC[C@H]1O[C@@H](n2cnc3c(NC4CCOC4)ncnc32)[C@H](O)[C@@H]1O` (stereo partly drawn) [Compound 25]: the figures for the Ki in test [1] and in test [7] were above 100000 nM and 2020 nM, respectively. For the same compound, the “selectivity” value in test [9] is recorded as “selective for the adenosine A1 receptor”.
